Data as given in patent US20230257367A1, “NOVEL THYROID HORMONE BETA RECEPTOR AGONIST” (Chengdu Kanghong Pharmaceutical Co., Ltd., priority 2020, published 2023).

Experiments:
[1] = preclinical toxicological studies; cited from earlier work
[2] = reported clinical data (VK2809 phase I; Eprotirome phase III); cited from earlier work
TRβ = molecular target: T1, TRβ (Homo sapiens, UniProt P10828); assay: In vitro TRβ cell transfection experiment (GAL4 luciferase reporter, HEK293T); type: cell-based
T1 construct: host or cells: HEK293T
T1 sequence (P10828 217-461 limits assumed): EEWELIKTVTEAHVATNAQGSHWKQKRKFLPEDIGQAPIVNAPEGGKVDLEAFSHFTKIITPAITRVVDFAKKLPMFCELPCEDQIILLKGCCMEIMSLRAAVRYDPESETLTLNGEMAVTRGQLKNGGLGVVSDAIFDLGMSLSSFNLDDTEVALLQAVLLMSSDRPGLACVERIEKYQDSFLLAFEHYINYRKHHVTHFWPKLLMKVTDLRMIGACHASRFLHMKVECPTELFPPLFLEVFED
T1 sequence (P19793 227-458 partner limits assumed): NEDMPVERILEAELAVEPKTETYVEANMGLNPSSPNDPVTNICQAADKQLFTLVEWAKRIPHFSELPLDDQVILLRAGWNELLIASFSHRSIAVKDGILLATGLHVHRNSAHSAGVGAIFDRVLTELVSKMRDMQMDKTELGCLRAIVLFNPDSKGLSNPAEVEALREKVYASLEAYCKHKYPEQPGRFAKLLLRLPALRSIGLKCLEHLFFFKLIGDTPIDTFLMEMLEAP

TRα = molecular target: T2, TRα (Homo sapiens, UniProt P10827); assay: In vitro TRα cell transfection experiment (GAL4 luciferase reporter, HEK293T); type: cell-based
T2 construct: host or cells: HEK293T
T2 sequence (P10827 1-410 isoform P10827-2): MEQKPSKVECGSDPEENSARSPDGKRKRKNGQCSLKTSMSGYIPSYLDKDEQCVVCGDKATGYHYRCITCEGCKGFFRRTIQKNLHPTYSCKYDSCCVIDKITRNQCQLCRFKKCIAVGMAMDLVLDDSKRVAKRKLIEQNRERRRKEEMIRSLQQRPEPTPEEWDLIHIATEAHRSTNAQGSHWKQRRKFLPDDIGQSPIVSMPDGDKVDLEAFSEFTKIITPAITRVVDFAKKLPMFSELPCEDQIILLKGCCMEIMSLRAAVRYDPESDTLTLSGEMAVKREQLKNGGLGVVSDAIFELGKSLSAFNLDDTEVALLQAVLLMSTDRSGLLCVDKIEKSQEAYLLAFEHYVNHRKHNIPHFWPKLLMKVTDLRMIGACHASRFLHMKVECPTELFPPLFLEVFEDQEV
T2 sequence (P19793 227-458 partner limits assumed): T1 sequence (P19793 227-458 partner limits assumed)

TRβ-LBD/RXRα = molecular target: T3, TRβ-LBD/RXRα (Homo sapiens, UniProt P10828); assay: In vitro binding experiment (TR-FRET SRC2-2 co-activator peptide recruitment), TRβ; type: biochemical; conditions: 4 h incubation at room temperature
T3 construct: TRβ-LBD (Invitrogen, PV4764) with a GST tag were used; purchased Invitrogen (TRβ-LBD); Pharmaron (RXRα) PV4764

TRα-LBD/RXRα = molecular target: T4, TRα-LBD/RXRα (Homo sapiens, UniProt P10827); assay: In vitro binding experiment (TR-FRET SRC2-2 co-activator peptide recruitment), TRα; type: biochemical; conditions: 4 h incubation at room temperature
T4 construct: TRα-LBD (Invitrogen, PV4762), or TRβ-LBD (Invitrogen, PV4764) with a GST tag were used; purchased Invitrogen (TRα-LBD); Pharmaron (RXRα) PV4762

primary hepatocyte = assay: Hepatotoxicity detection in vitro (CellTiter-Glo); type: cell-based, human; conditions: primary hepatocytes; for IC50: Homo sapiens, Hepatocyte, cell viability after 48 hours; for Cell activity at the highest concentration (%): 48 hours, highest working solution concentration 600 μM
Experimental: Information of Primary Hepatocyte
Step 1: a test substance was prepared into a 200 mM DMSO stock solution, and then subjected to 3-times gradient continuous dilution by 7 concentrations, then 1.5 μL of each of the solutions of the 8 concentrations was added into 498.5 μL of incubation culture medium (with a composition referring to Table 5, directly mixed evenly) to prepare a working solution, and the incubation culture medium was preheated at 37° C. before preparation. DMSO was used as a solvent control. DMSO contents in the working solution and the solvent control were both 0.3 vol %. Concentrations of compounds were as follows:
Step 2: Plate Inoculation and Cell Culture
Second Step: Plate Inoculation and Culture of Cells
1) A tube of hepatocytes of the donor used in the experiment preserved at ultra-low temperature was taken, and the hepatocytes were ensured to be still frozen at low temperature before resuscitation. The hepatocytes were quickly placed in a water bath at 37° C. and gently shaken until all ice crystals were dispersed, and were transferred to a biosafety cabinet after spraying 70 vol % ethanol.
2) Contents of hepatocyte tubules were poured into a 50 mL centrifuge tube containing 50 mL of resuscitation culture medium (with a composition referring to Table 3, directly mixed evenly), and centrifuged at 80 g for 8 minutes. After centrifugation, the resuscitation culture medium was sucked out and an inoculation culture medium was added (with a composition referring to Table 4, directly mixed evenly). The cells were counted by AO/PI staining to obtain a cell suspension with a cell density of 0.2×10^6 cells per milliliter.
3) The cell suspension above was inoculated into a 96-well plate coated with collagen I, with 100 μL per well. The culture plate was placed in a 5% CO2 incubator with 95% relative humidity to culture for 4 hours to 6 hours.
4) After incubation for 4 hours to 6 hours, the state of the cells was observed under microscope. The culture plate was shaken gently, the inoculation culture medium was sucked out, and 100 μL of incubation culture medium was added into each well (with a composition referring to Table 5). A toxicity test could be carried out after culturing in the incubator for 18 hours to 20 hours.
5) Before administration, the morphology of the cells was observed under microscope. The culture medium in the culture plate was sucked out, and 100 μL of solvent control (DMSO), or test substance working solution was added into each well. Three parallel samples were tested under each condition.
6) The newly prepared working solution or solvent control was used for solution exchange every 24 hours after dosing.
After the working solution acted for 48 hours, the morphology of the cells was observed under microscope for later use.
Step 3: Cytotoxicity Detection
1) A CellTiter-Glo (Promega, article number G9243) reagent stored at −20° C. was melted in a water bath at 37° C.
2) After the cell culture plate obtained above was incubated for 48 hours, 50 μL of CellTiter-Glo solution was directly added into each experimental well.
3) The cell culture plate was vortexed at 400 rpm for 10 minutes, and incubated at room temperature to stabilize a luminescence signal.
After 10 minutes 100 μL of reaction solution was sucked from each well and transferred to a new white nontransparent-bottom flat plate (Corning 96-well plate Cat No. 3917). The
chemiluminescence value of each well was read by a microplate reader (a luminescence value of the white nontransparent-bottom flat plate was recorded as “a luminescence valueblank”; and a luminescence value of the solvent control was recorded as “a luminescence valuesolvent”).
Cell viability(%)=[(luminescence valueto-be-tested compound−luminescence valueblank)/(luminescence valuesolvent−luminescence valueblank)]×100% […]

T3 sequence (P19793 whole entry partner, other chains not shown, the tested form may be a part): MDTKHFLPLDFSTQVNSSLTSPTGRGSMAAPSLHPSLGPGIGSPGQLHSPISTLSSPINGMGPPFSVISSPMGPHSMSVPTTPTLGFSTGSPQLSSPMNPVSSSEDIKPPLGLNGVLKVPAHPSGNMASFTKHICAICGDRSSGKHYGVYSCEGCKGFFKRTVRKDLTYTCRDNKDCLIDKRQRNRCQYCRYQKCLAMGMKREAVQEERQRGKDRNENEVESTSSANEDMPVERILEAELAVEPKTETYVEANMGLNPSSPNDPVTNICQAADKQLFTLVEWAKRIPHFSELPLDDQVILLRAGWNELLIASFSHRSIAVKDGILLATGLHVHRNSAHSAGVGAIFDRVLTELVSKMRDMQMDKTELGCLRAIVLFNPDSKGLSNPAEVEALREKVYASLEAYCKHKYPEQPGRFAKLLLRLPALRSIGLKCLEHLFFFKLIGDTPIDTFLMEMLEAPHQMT
T4 sequence (P19793 whole entry partner, other chains not shown, the tested form may be a part): as above

CC(C)c1cc(Oc2c(Br)cc(NC(=O)CC(=O)O)cc2Br)ccc1O [Eprotirome]
cartilage damage [1]: cartilage injury was also found | liver enzyme [2]: increase in liver enzyme

CC(C)c1nc(Oc2c(Cl)cc(-n3nc(C#N)c(=O)[nH]c3=O)cc2Cl)ncc1O [KH03]
EC50 (TRβ): 0.089 µM | EC50 (TRα): 0.826 µM | EC50 (TRβ-LBD/RXRα): 0.031 µM | EC50 (TRα-LBD/RXRα): 0.144 µM | IC50 (primary hepatocyte): 264000 nM | Cell activity at the highest concentration (%) (primary hepatocyte): 0.0421%

Cc1cc(OCP2(=O)OCC[C@@H](c3cccc(Cl)c3)O2)cc(C)c1Cc1ccc(O)c(C(C)C)c1 (stereo partly shown) [VK2809]
cartilage damage [1]: cartilage damage was found | liver enzyme [2]: Liver enzyme increase

O=c1cnn(-c2cc(Cl)c(Oc3ncc(O)c(Cc4ccccc4)n3)c(Cl)c2)c(=O)[nH]1 [KH10]
EC50 (TRβ): 0.032 µM | EC50 (TRα): 0.269 µM | EC50 (TRβ-LBD/RXRα): 0.054 µM | EC50 (TRα-LBD/RXRα): 1.47 µM | IC50 (primary hepatocyte): 160000 nM | Cell activity at the highest concentration (%) (primary hepatocyte): 0.0142%
